Experimental data published in patent US11857550B2, “Benzathine analogs” (University of Pittsburgh—Of the Commonwealth System of …, priority 2012, dated 2024).

Columns and labels:
human PBMC cells = experiment: LPS-induced IL1β and TNFα cytokine release from PBMC cells (ELISA); assay type: cell-based; details: LPS-exposed human PBMC
Description: (§1) FIGS. 20A-20J is a table depicting benzathine compounds, and assay results. PBMC cells (0.6 ml at 1.5*10^6/ml) were treated with 2 ug/ml LPS for 16 hrs along with each compound at different concentrations. IL1β and TNFα cytokine release were monitored by ELISA to calculate the IC50. U937 monocyte (0.6 ml at 1.5*10^6/ml) were treated with each compound at different concentrations for 16 h. Cells were then stained with Trypan blue to differentiate dead cells, and calculate the LD50. Therapeutic index (TI)=LD50/IC50. Compounds marked in red are high value targets (low IC50, high LD50) and require further testing in vivo.
(§2) Briefly, compounds were added to human PBMC cells at different concentrations that were exposed to […] and cytokine secretion was monitored by ELISA to determine the IC50. Compounds were also added to U937 monocytes at different concentrations, and cells were stained with trypan blue to determine the LD50. […] Several functional studies were undertaken to assess anti-inflammatory effects focusing on BC-1215.

U937 monocyte = U937 monocyte Trypan blue cell death (LD50); assay type: cell-based, human; details: U937 monocytes, 16 h
Description: as §1, §2

C57BL6 mice [1] = experiment: Pseudomonas aeruginosa PA103 pneumonia model; assay type: in vivo; details: i.p., PA103 2.5*10^4 cfu/mouse i.t., 18 h
C57BL6 mice [2] = experiment: TPA induced ear edema; assay type: in vivo; details: various doses to ears 30 min after TPA, 18 h
Description: FIGS. 15A-15C. […] FIG. 15A-15C. C57BL6 mice were deeply anesthetized with ketamine (80-100 mg/kg i.p.) and xylazine (10 mg/kg i.p.). 20 μl of ethanol solution of BC-1215 was applied to ears at 8, 40, 200 ug/ear 30 min after TPA administration (2 μg/ear). Comparisons included equal volumes of ethanol (vehicle control). 18 h after TPA administration, mice were euthanized; the thickness of the ear was measured using a micrometer (FIG. 15B). Ear punch biopsies were also taken immediately, weighed and graphed (FIG. 15C).
FIGS. 23A-23D. […] Different dose of BC-1261 was applied to ears of mice at various doses 30 min after TPA administration (2 μg/ear). A. Gross comparisons were made with equal volumes of ethanol as a vehicle control (CON). 18 h after TPA administration, mice were euthanized and the thickness of the ear was measured using a micrometer (B). Autopsy sample were also taken to measure MPO activity (C) and calculate ear edema (D). The data represent n=6 mice/group, *P<0.05 versus TPA.
Topical application of BC-1215 as an anti-inflammatory agent was tested in a model of 12-O-tetradecanoylphorbol-13-acetate (TPA) induced ear edema (Bralley et. al., J Inflamm (LOnd), 2008. 5:p.1). Briefly, 20 μl of an ethanol solution of BC-1215 was applied to ears of mice at 8, 40, and 200 ug/ear for 30 min after TPA administration (2 μg/ear). Comparisons included equal volumes of ethanol (vehicle control). 18 h after TPA administration, mice were euthanized; the thickness of the ear was measured using a micrometer. Ear punch biopsies were also taken immediately, weighed, and graphed.

C57BL6 mice [3] = experiment: DSS induced (acute) colitis; assay type: in vivo; details: 150 μg daily i.p. or 30 μg/ml drinking water, 3.5% DSS
Description: FIGS. 17A-17D. BC-1215 reduces DSS induced colonic inflammation. FIGS. 17A-FIG. 17C. C57BL6 mice were fed with water containing 3.5% dextran sulfate sodium (DSS) for up to five days. Mice were treated with either vehicle or 100 ug of BC-1215 daily (via IP injection). Mice were then euthanized; the length of the colon was measured and graphed in (FIG. 17A). Colonic tissues were also analyzed for IL1β (FIG. 17B) and TNFα (FIG. 17C) by ELISA. (n=4 mice/group, *p<0.05 versus DSS) FIG. 17D, H&E staining was performed on colonic samples. (n=4 mice/group, *p<0.05 versus DSS)
FIGS. 24A-24E. […] A-D. C57BL6 mice were fed with water ad lib containing 3.5% dextran sulfate sodium (DSS) for up to five days. Mice were treated with either vehicle (control [CON]) or BC-1261 (150 μg) daily (via an i.p. injection), or BC-1261 were administered into drinking water at 30 μg/ml (po). Mice were then euthanized and the length of the colon was measured and graphed in (A-B). Colonic tissues were also analyzed for TNFα (C) and IL6(D). E. H&E staining was performed on colonic sections. The data represent n=4 mice/group, *P<0.05 versus DSS and **P<0.05 versus CON.
BC-1215 ameliorates DSS induced colitis. BC-1215 was also tested in a mouse colitis model to confirm its anti-inflammatory activity. Briefly, C57BL6 mice were fed with water containing 3.5% dextran sulfate sodium (DSS) for up to five days. Mice were treated with either vehicle or 200 ug of BC-1215 daily (via IP injection). Mice were then euthanized; the length of colons was measured. […] Colonic tissue cytokine levels were analyzed. […] Thus, the FBXO3 inhibitor BC-1215 suppresses inflammation in chemical induced colitis model in mice.

mice = experiment: Cigarette smoke induced chronic lung inflammation; assay type: in vivo; details: 100 ug i.p. after 5 weeks smoke, 18 h
Description: FIGS. 22A-22C. […] Mice were exposed to cigarette smoke for 5 weeks before one does of i.p. injection of BC1261 (100 ug), 18 h later, mice were euthanized and lungs were lavaged with saline, harvested, and then homogenized. Lavage protein, cell counts and cytokine secretion were measured in (A-C). The data represent n=3 mice/group, *P<0.05 versus con.

C57BL6 mice [4] = experiment: DSS induced chronic colonic inflammation; assay type: in vivo; details: 30 μg/ml drinking water from day 7, 2% DSS cycles
Description: FIGS. 25A-25J. […] A. C57BL6 mice were fed with water ad lib containing 2% dextran sulfate sodium (DSS) for six days, then switch to water for up to three cycles. BC-1261 was administered into drinking water at 30 μg/ml, starting at day 7. Mice were euthanized at the end of the experiment and the length of the colon was measured and graphed in (B-C). Disease index was measured and graphed in (D). Serum cytokine levels were measured in (E-F). Colonic tissues cytokines and MPO activity were also analyzed (GJ). The data represent n=7 mice/group, *P<0.05 versus CON.

MLE cells = experiment: BrdU/7-AAD FACS cell cycle and apoptosis analysis; assay type: cell-based, murine
Description: FIGS. 27A-27G. […] A. PBMCs from 5 controls, AML, and ALL subjects were cultured in RPMI medium for 18 h. Cells were then collected, lysed, and assayed for protein immunoblotting. B-D. Human leukemia cells (U937, K562 and THP1 cells) were treated with BC-1258 at different concentrations for 16 h. Cells were collected and assayed for Aurora B, cyclin D2, cyclin D3 and FBXL2 immunoblotting. E-F. MLE cells were treated with BC-1258 at different concentrations for 16 h, cells were processed by BrdU uptake and 7-AAD staining followed by FACS cell cycle analysis (E), 2N, 4N, and 8N DNA histograms were quantitated and graphed in (F). G. Quantification of FACS analysis showing levels of apoptotic MLE cells after BC-1258 treatment at each time point.

U937 tumor implants = experiment: U937 tumor xenograft in nude mice; assay type: in vivo; details: 30 ug/ml in the drinking water
Description: FIGS. 28A-281. […] A-E. Effect of BC-1258 and other compounds on growth of U937 tumor implants in nude mice, n=4 mice/group with drug concentration at 30 ug/ml in the drinking water. […] B. Tumor volume measurements over time (n=4 mice/group, *P<0.05 versus con). D. Tumor tissue from C were weighted and graphed (n=4 mice/group, *P<0.05 versus con). E. Tumors from three controls and three drug treated U937 implants in mice were collected at the end-point, and assayed for AuroraB, CaM and FBXL2 proteins by immunoblotting. F-I. Serum of each mice were collected at the end point and processed for creatinine, LDH, ALT and creatine kinase activity.

In the case of `c1cnc(-c2ccc(CNCCNCc3ccc(-c4ncccn4)cc3)cc2)nc1` [BC-1261], the “IC50 (cytokine secretion)” value (human PBMC cells) is reported as “high”, the LD50 (U937 monocyte) is reported as “low” and the “P. aeruginosa induced lung inflammation” value (C57BL6 mice [1]) is reported as “reduces P. aeruginosa induced lung inflammation”. The “TPA induced ear edema” value (C57BL6 mice [2]) was “reduces TPA induced ear edema”, the “DSS induced acute colonic inflammation” value (C57BL6 mice [3]) was “reduces DSS induced acute colonic inflammation” and the “smoke induced chronic lung inflammation” value (mice) was “reduces smoke induced chronic lung inflammation”. For the same compound, the “DSS induced chronic colonic inflammation” value (C57BL6 mice [4]) was “reduces DSS induced chronic colonic inflammation”.

In the case of `c1csc(-c2ccc(CNCCNCc3ccc(-c4nccs4)cc3)cc2)n1` [BC-1258], the apoptosis (MLE cells) is reported as “apoptosis”, the cell cycle arrest (MLE cells; different concentrations, 16 h) is reported as “Induces G2/M arrest” and the tumor growth (U937 tumor implants) is reported as “suppresses tumor growth in xenograft”.

In the case of `c1cn(-c2ccc(CNCCNCc3ccc(-n4ccnc4)cc3)cc2)cn1` [BC-1207], the “IC50 (cytokine secretion)” value (human PBMC cells) is reported as “high” and the LD50 (U937 monocyte) is reported as “low”.

For `c1cnn(-c2ccc(CNCCNCc3ccc(-n4cccn4)cc3)cc2)c1` [BC-1250], the “IC50 (cytokine secretion)” value (human PBMC cells) was “high” and the LD50 (U937 monocyte) was “low”.

With `Fc1ccc(CNCCNCc2ccc(-c3ccccn3)cc2)cc1` [BC-1241] the “IC50 (cytokine secretion)” value (human PBMC cells) was “high” and the LD50 (U937 monocyte) was “low”.
